# Measured values from US20100189648A1, “INHIBITORS FOR DISRUPTING THE INTERACTION OF UBIQUITINATION RELATED ENZYMES AND USES THEREOF” (priority 2006, published 2010).
# “And” between values parts separate entries of the source, which are not always exact repeats. Equal values may be shown once. Read-outs that look alike come from different tables or passages of the source.
# Tests used:
# Assay type in all cases: cell-based, human
# Hela cells = assay: MTT survival assay, cervical cancer line (Hela cells); conditions: for IC50: Homo sapiens
# Outline: (§1)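 Survival was measured by MTT reduction after tumour cells had been exposed to a range of compound concentrations for 68 hours at 37 C. Absorbance at 570 nm gave percent inhibition against untreated wells, and IC50 values were fitted by the Bliss method.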
# MCF-7 = assay: MTT survival assay, breast cancer cell line (MCF-7); conditions: for IC50: Homo sapiens
# Outline: as §1
# HCT116 = assay: MTT survival assay, colon cancer cell line (HCT116); conditions: for IC50: Homo sapiens
# Method: The effect of the above identified compounds on anti-tumor activity in human carcinoma cells was determined by the MTT survival assay. The MTT assay is a commonly used method in evaluation of cell survival, based on the ability of viable cells to convert MTT (MTT, Sigma, Cat No. 044K5307), a soluble tetrazolium salt [3-(4,5-dimethylthuazole-2-yl)-2,5 diphenyl tetrazolium bromide], into an insoluble formazan precipitate, which is quantitated by spectrophotometry following solubilization in dimethyl sulfoxide (DMSO).
# In brief, different carcinoma cells were treated with negative control, various test articles at different concentration, and positive control (DDP), in 96-well tissue culture dishes. Each test article at different concentration is repeated 3 times.
# Different carcinoma cells were diluted with 10% FBS and RPM1640 or MEM media to a concentration of 3-5×10^4 per ml suspension. 100 microliter of cells were incubated in each well in 96-well tissue culture dishes at 37 C. The cells were incubated at 37 C on the first day. On the second day, media supernatant was removed and replaced with media and different concentration of test articles (100 microliter in each well). Three Negative control wells and three positive control (DDP) wells were also included. The 96-well plate were incubated at 37 C for another 68 hours. After 68 hours, supernatant of each well was removed. 100 microliter of 1 mg/ml MTT diluted in PBS was injected into each well. The cells were incubated at 37 C for another 4 hours. The cells were then solubilized in 150 microliter DMSO, mixed for 10 minutes and absorbance readings were taken using Microplate reader Bio-Rad Model 550 at 570 nm. IR (cell growth inhibition rate) % was calculated as (OD570 of negative control-OD570 with test article)/OD570 of negative control. IC50 (cell 50% inhibition concentration) at 95% confidence level was calculated with Bliss method.
# A459 = assay: MTT survival assay, lung cancer cell line (A459); conditions: A459 Experiment #2; for IC50: Homo sapiens
# Outline: as §1
# SMMC-7721 = assay: MTT survival assay, liver cancer cell line (SMMC-7721); conditions: SMMC-7721 Experiment #2; for IC50: Homo sapiens
# Outline: as §1
# SKOV3 = assay: MTT survival assay, ovarian cancer cell line (SKOV3); conditions: SKOV3 (second table)
# Outline: as §1
# U251 = assay: MTT survival assay, glioma cell line (brain tumor U251); conditions: U251 (second table)
# Outline: as §1
# [1] = 95% confidence limits of IC50, read-out: IC50 (95% confidence level), interval
# [2] = Bliss method, unit not printed (concentrations in μg/ml), read-out: IC50 (95% confidence level)
smiles,measurement,setting,value
O=C(CSc1cc(COc2ccc(Br)cc2)[nH]n1)c1ccccc1 [Mol 21],IR (%),Hela cells; 0.41 μg/ml,10.0%
same,OD(A570 nm),Hela cells; 0.41 μg/ml,0.668 ± 0.049
same,OD(A570 nm),Hela cells; 1.23 μg/ml,0.785 ± 0.081
same,OD(A570 nm),Hela cells; 3.70 μg/ml,0.774 ± 0.066
same,IR (%),Hela cells; 11.11 μg/ml,35.4%
same,OD(A570 nm),Hela cells; 11.11 μg/ml,0.480 ± 0.035
same,IR (%),Hela cells; 33.33 μg/ml,73.8%
same,OD(A570 nm),Hela cells; 33.33 μg/ml,0.194 ± 0.031
same,IR (%),Hela cells; 100 μg/ml,82.5%
same,OD(A570 nm),Hela cells; 100 μg/ml,0.130 ± 0.039
same,IC50,Hela cells; [1],18.8 to 26.4 µg/mL
same,IC50,Hela cells; [2],22.2 µg/mL
same,IR (%),MCF-7; 3.125 μg/ml,12.5%
same,OD(A570 nm),MCF-7; 3.125 μg/ml,0.789 ± 0.064
same,IR (%),MCF-7; 6.25 μg/ml,30.9%
same,OD(A570 nm),MCF-7; 6.25 μg/ml,0.624 ± 0.008
same,IR (%),MCF-7; 12.5 μg/ml,61.6%
same,OD(A570 nm),MCF-7; 12.5 μg/ml,0.346 ± 0.022
same,IR (%),MCF-7; 25 μg/ml,89.1%
same,OD(A570 nm),MCF-7; 25 μg/ml,0.098 ± 0.006
same,IR (%),MCF-7; 50 μg/ml,92.4%
same,OD(A570 nm),MCF-7; 50 μg/ml,0.069 ± 0.006
same,IR (%),MCF-7; 100 μg/ml,92.1%
same,OD(A570 nm),MCF-7; 100 μg/ml,0.072 ± 0.007
same,IC50,"MCF-7; MCF7, 95% confidence limits of IC50, read-out: IC50 (95% confidence level), interval",8.53 to 11.4 µg/mL
same,IC50,"MCF-7; MCF7, Bliss method, unit not printed (concentrations in μg/ml), read-out: IC50 (95% confidence level)",9.93 µg/mL
same,IR (%),HCT116; 3.125 μg/ml,56.2% and 30.4%
same,OD(A570 nm),HCT116; 6.25 μg/ml,0.300 ± 0.050 and 0.394 ± 0.039
same,OD(A570 nm),HCT116; 12.5 μg/ml,0.150 ± 0.025 and 0.267 ± 0.035
same,IR (%),HCT116; 25 μg/ml,80.0% and 81.3%
same,OD(A570 nm),HCT116; 25 μg/ml,0.109 ± 0.006 and 0.101 ± 0.020
same,OD(A570 nm),HCT116; 50 μg/ml,0.083 ± 0.011 and 0.085 ± 0.004
same,IR (%),HCT116; 100 μg/ml,84.1% and 84.7%
same,OD(A570 nm),HCT116; 100 μg/ml,0.086 ± 0.012 and 0.083 ± 0.001
same,IC50,"HCT116; HCT-116, 95% confidence limits of IC50, read-out: IC50 (95% confidence level), interval",2.99 to 3.33 µg/mL
same,IC50,"HCT116; HCT-116, Bliss method, unit not printed (concentrations in μg/ml), read-out: IC50 (95% confidence level)",3.16 µg/mL
same,IR (%),A459; 3.125 μg/ml,−0.7%
same,OD(A570 nm),A459; 3.125 μg/ml,0.642 ± 0.073
same,IR (%),A459; 6.25 μg/ml,−3.9%
same,OD(A570 nm),A459; 6.25 μg/ml,0.662 ± 0.031
same,IR (%),A459; 12.5 μg/ml,56.2%
same,OD(A570 nm),A459; 12.5 μg/ml,0.279 ± 0.014
same,IR (%),A459; 25 μg/ml,81.5%
same,OD(A570 nm),A459; 25 μg/ml,0.118 ± 0.027
same,IR (%),A459; 50 μg/ml,89.2%
same,OD(A570 nm),A459; 50 μg/ml,0.069 ± 0.010
same,IR (%),A459; 100 μg/ml,87.1%
same,OD(A570 nm),A459; 100 μg/ml,0.082 ± 0.015
same,IC50,A459; [1],6.3 to 7.13 µg/mL
same,IC50,A459; [2],6.72 µg/mL
same,IC50,SMMC-7721; [1],9.32 to 9.71 µg/mL
same,IC50,SMMC-7721; [2],9.52 µg/mL
same,IR (%),SMMC-7721; 3.125 μg/ml,−49.9%
same,OD(A570 nm),SMMC-7721; 3.125 μg/ml,0.690 ± 0.603
same,IR (%),SMMC-7721; 6.25 μg/ml,65.1%
same,OD(A570 nm),SMMC-7721; 6.25 μg/ml,0.161 ± 0.085
same,IR (%),SMMC-7721; 12.5 μg/ml,68.3%
same,OD(A570 nm),SMMC-7721; 12.5 μg/ml,0.146 ± 0.041
same,IR (%),SMMC-7721; 25 μg/ml,72.0%
same,OD(A570 nm),SMMC-7721; 25 μg/ml,0.129 ± 0.006
same,IR (%),SMMC-7721; 50 μg/ml,82.9%
same,OD(A570 nm),SMMC-7721; 50 μg/ml,0.079 ± 0.005
same,IR (%),SMMC-7721; 100 μg/ml,83.2%
same,OD(A570 nm),SMMC-7721; 100 μg/ml,0.077 ± 0.009
same,IC50,"SKOV3; Homo sapiens, SK-OV-3, Bliss method, unit not printed (concentrations in μg/ml), read-out: IC50 (95% confidence level)",17.7 µg/mL
same,IR (%),SKOV3; 3.125 μg/ml,28.2%
same,OD(A570 nm),SKOV3; 3.125 μg/ml,0.503 ± 0.031
same,IR (%),SKOV3; 6.25 μg/ml,24.1%
same,OD(A570 nm),SKOV3; 6.25 μg/ml,0.532 ± 0.025
same,IR (%),SKOV3; 12.5 μg/ml,34.3%
same,OD(A570 nm),SKOV3; 12.5 μg/ml,0.460 ± 0.195
same,IR (%),SKOV3; 25 μg/ml,38.8%
same,OD(A570 nm),SKOV3; 25 μg/ml,0.429 ± 0.002
same,IR (%),SKOV3; 50 μg/ml,83.0%
same,OD(A570 nm),SKOV3; 50 μg/ml,0.119 ± 0.010
same,IR (%),SKOV3; 100 μg/ml,89.1%
same,OD(A570 nm),SKOV3; 100 μg/ml,0.077 ± 0.011
same,IC50,"U251; Homo sapiens, U-251, Bliss method, unit not printed (concentrations in μg/ml), read-out: IC50 (95% confidence level)",16.2 µg/mL
same,IR (%),U251; 3.125 μg/ml,4.2%
same,OD(A570 nm),U251; 3.125 μg/ml,0.840 ± 0.013
same,IR (%),U251; 6.25 μg/ml,18.0%
same,OD(A570 nm),U251; 6.25 μg/ml,0.719 ± 0.110
same,IR (%),U251; 12.5 μg/ml,42.8%
same,OD(A570 nm),U251; 12.5 μg/ml,0.501 ± 0.058
same,IR (%),U251; 25 μg/ml,73.5%
same,OD(A570 nm),U251; 25 μg/ml,0.232 ± 0.034
same,IR (%),U251; 50 μg/ml,86.2%
same,OD(A570 nm),U251; 50 μg/ml,0.121 ± 0.019
same,IR (%),U251; 100 μg/ml,89.2%
same,OD(A570 nm),U251; 100 μg/ml,0.094 ± 0.007
